Counter-ions that a name gives are not always drawn. Like-named read-outs stand apart in the source and are kept apart here.
What was measured:
Format in all cases: biochemical
recombinant PRL-2 = target: T1, recombinant PRL-2 (Homo sapiens, UniProt Q12974); assay: In vitro phosphatase assay (DiFMUP hydrolysis), PRL-2;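 note: PRL-2 activity read as DiFMUP hydrolysis after 20 min at room temperature with drug, enzyme first pre-reduced at 4 °C for 20 min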
T1 construct: 6xHis (N, cleaved yes); made in house; host or cells: E. coli One Shot BL21 Star
T1 sequence (Q12974 1-167): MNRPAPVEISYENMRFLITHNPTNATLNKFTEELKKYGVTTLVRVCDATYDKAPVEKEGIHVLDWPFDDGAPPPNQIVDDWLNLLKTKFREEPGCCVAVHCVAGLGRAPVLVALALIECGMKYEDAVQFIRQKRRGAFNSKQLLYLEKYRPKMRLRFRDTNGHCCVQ

recombinant PRL-3 = target: T2, recombinant PRL-3 (Homo sapiens, UniProt O75365); assay: In vitro phosphatase assay (DiFMUP hydrolysis), PRL-3
T2 construct: 6xHis (N, cleaved yes); made in house; host or cells: E. coli One Shot BL21 Star

recombinant PRL-1 = target: T3, recombinant PRL-1 (Homo sapiens, UniProt Q93096); assay: In vitro phosphatase assay (DiFMUP hydrolysis), PRL-1
T3 construct: 6xHis (N, cleaved yes); made in house; host or cells: E. coli One Shot BL21 Star
T3 sequence (Q93096 1-173): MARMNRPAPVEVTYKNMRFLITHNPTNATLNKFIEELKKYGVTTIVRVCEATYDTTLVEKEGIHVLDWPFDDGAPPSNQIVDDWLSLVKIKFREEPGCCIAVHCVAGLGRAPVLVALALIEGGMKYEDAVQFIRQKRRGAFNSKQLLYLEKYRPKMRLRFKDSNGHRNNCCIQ

[1] = FDA-approved drug screen, compared to DMSO

T2 sequence (O75365 whole entry): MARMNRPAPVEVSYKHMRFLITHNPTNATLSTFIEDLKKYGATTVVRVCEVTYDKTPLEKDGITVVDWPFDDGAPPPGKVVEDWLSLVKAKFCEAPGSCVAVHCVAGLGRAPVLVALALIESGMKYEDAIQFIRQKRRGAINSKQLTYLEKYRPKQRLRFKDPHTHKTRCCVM

| SMILES | % Phosphatase Activity (compared to DMSO) PRL-2 (recombinant PRL-2; [1]) [%] | % Phosphatase Activity (compared to DMSO) PRL-3 (recombinant PRL-3; [1]) [%] | % Phosphatase Activity (compared to DMSO) PRL-1 (recombinant PRL-1; [1]) [%] | also measured |
| --- | --- | --- | --- | --- |
| CNC1CCCN(c2c(F)cc3c(=O)c(C(=O)O)cn(C4CC4)c3c2OC)C1 (stereo not drawn) [Balofloxacin] | 411 | 123 | 282 |  |
| CCN(CCO)CCCOc1ccc2c(Nc3cc(CC(=O)Nc4cccc(F)c4)[nH]n3)ncnc2c1 [Barasertib (AZD1152-HQPA)] | 95 | 76 | 91 |  |
| CNC(=O)[C@H](Cc1ccccc1)NC(=O)[C@H](CC(C)C)[C@H](CSc1cccs1)C(=O)NO [Batimastat (BB-94)] | 79 | 89 | 88 |  |
| CCC(=O)OCC(=O)[C@@]1(OC(=O)CC)[C@@H](C)C[C@H]2[C@@H]3CCC4=CC(=O)C=C[C@]4(C)[C@@]3(Cl)[C@@H](O)C[C@@]21C [Beclomethasone dipropionate] | 91 | 90 | 98 |  |
| O=C(/C=C/c1cccc(S(=O)(=O)Nc2ccccc2)c1)NO [Belinostat (PXD101)] | 104 | 80 | 98 |  |
| CCOC(=O)[C@H](CCc1ccccc1)N[C@H]1CCc2ccccc2N(CC(=O)O)C1=O [Benazepril HCl] | 80 | 78 | 91 |  |
| Cl.Cn1c(CCCC(=O)O)nc2cc(N(CCCl)CCCl)ccc21 [Bendamustine HCl] | 128 | 79 | 122 |  |
| NC(CO)C(=O)NNCc1ccc(O)c(O)c1O (stereo not drawn) [Benserazide HCl] | 99 | 68 | 103 |  |
| CCc1oc2ccccc2c1C(=O)c1cc(Br)c(O)c(Br)c1 [Benzbromarone] | 56 | 51 | 63 |  |
| CCOC(=O)c1ccc(N)cc1.Cl [Benzocaine hydrochloride] | 102 | 84 | 100 |  |
| CCOC(=O)c1ccc(N)cc1 [Benzocaine] | 98 | 84 | 87 |  |
| NS(=O)(=O)c1cc2c(cc1Cl)N=C(CSCc1ccccc1)NS2(=O)=O [Benzthiazide] | 115 | 99 | 111 |  |
| CN1[C@@H]2CC[C@H]1C[C@@H](OC(c1ccccc1)c1ccccc1)C2 [Benztropine mesylate] | 106 | 89 | 94 |  |
| CN(C)CCCOc1nn(Cc2ccccc2)c2ccccc12 [Benzydamine HCl] | 116 | 77 | 100 |  |
| OCc1ccccc1 [Benzyl alcohol] | 91 | 82 | 94 |  |
| O=C(OCc1ccccc1)c1ccccc1 [Benzyl benzoate] | 75 | 77 | 83 |  |
| C[N+](C)(CCOc1ccccc1)Cc1ccccc1.O=C([O-])c1cc2ccccc2cc1O [Bephenium Hydroxynaphthoate] | 103 | 92 | 108 |  |
| CNCCc1ccccn1.Cl.Cl [Betahistine 2HCl] | 96 | 87 | 93 |  |
| CCC(=O)OCC(=O)[C@@]1(OC(=O)CC)[C@@H](C)C[C@H]2[C@@H]3CCC4=CC(=O)C=C[C@]4(C)[C@@]3(F)[C@@H](O)C[C@@]21C [Betamethasone Dipropionate] | 83 | 84 | 92 |  |

| SMILES | % Phosphatase Activity (compared to DMSO) PRL-2 (recombinant PRL-2; [1]) [%] | % Phosphatase Activity (compared to DMSO) PRL-3 (recombinant PRL-3; [1]) [%] | % Phosphatase Activity (compared to DMSO) PRL-1 (recombinant PRL-1; [1]) [%] | also measured |
| --- | --- | --- | --- | --- |
| CCCCC(=O)O[C@]1(C(=O)CO)[C@@H](C)C[C@H]2[C@@H]3CCC4=CC(=O)C=C[C@]4(C)[C@@]3(F)[C@@H](O)C[C@@]21C [Betamethasone valerate (Betnovate)] | 83 | 79 | 97 |  |
| C[C@H]1C[C@H]2[C@@H]3CCC4=CC(=O)C=C[C@]4(C)[C@@]3(F)[C@@H](O)C[C@]2(C)[C@@]1(O)C(=O)CO [Betamethasone] | 88 | 72 | 95 |  |
| O=C(O)CCNC(=O)c1ccccc1 [Betamipron] | 95 | 75 | 98 |  |
| CC(C)NCC(O)COc1ccc(CCOCC2CC2)cc1.Cl (stereo not drawn) [Betaxolol hydrochloride (Betoptic)] |  |  |  | % Phosphatase Activity (compared to DMSO) PRL-2 (recombinant PRL-2): 99%; % Phosphatase Activity (compared to DMSO) PRL-3 (recombinant PRL-3): 97%; % Phosphatase Activity (compared to DMSO) PRL-1 (recombinant PRL-1): 84% |
| CC(C)NCC(O)COc1ccc(CCOCC2CC2)cc1 (stereo not drawn) [Betaxolol] |  |  |  | % Phosphatase Activity (compared to DMSO) PRL-2 (recombinant PRL-2): 124%; % Phosphatase Activity (compared to DMSO) PRL-3 (recombinant PRL-3): 80%; % Phosphatase Activity (compared to DMSO) PRL-1 (recombinant PRL-1): 109% |
| CC(C[N+](C)(C)C)OC(N)=O (stereo not drawn) [Bethanechol chloride] | 119 | 77 | 104 |  |
| C=C(c1ccc(C(=O)O)cc1)c1cc2c(cc1C)C(C)(C)CCC2(C)C [Bexarotene] | 89 | 58 | 81 |  |
| CC(C)(Oc1ccc(CCNC(=O)c2ccc(Cl)cc2)cc1)C(=O)O [Bezafibrate] | 119 | 90 | 123 |  |
| C[C@@H](O)[C@H]1C(=O)N2C(C(=O)[O-])=C(SC3Cn4cnc[n+]4C3)[C@H](C)[C@H]12 (stereo partly drawn) [Biapenem] | 74 | 93 | 100 |  |
| CC(O)(CS(=O)(=O)c1ccc(F)cc1)C(=O)Nc1ccc(C#N)c(C(F)(F)F)c1 (stereo not drawn) [Bicalutamide] | 108 | 99 | 118 |  |
| c1ccc(-c2ccc(C(c3ccccc3)n3ccnc3)cc2)cc1 (stereo not drawn) [Bifonazole] | 108 | 94 | 86 |  |
| O=C(O)CCCC[C@@H]1SC[C@@H]2NC(=O)N[C@@H]21 [Biotin (Vitamin B7)] | 101 | 86 | 104 |  |
| CC[C@H](NC(=O)[C@H](C)NC)C(=O)N1C[C@@H](O)C[C@H]1Cc1c(-c2[nH]c3cc(F)ccc3c2C[C@@H]2C[C@H](O)CN2C(=O)[C@H](CC)NC(=O)[C@H](C)NC)[nH]c2cc(F)ccc12 [Birinapant] | 129 | 138 | 138 |  |
| CC(=O)Oc1ccc(C(c2ccc(OC(C)=O)cc2)c2ccccn2)cc1 [Bisacodyl] | 104 | 66 | 88 |  |
| CC(C)NCC(O)COc1ccc(COCCOC(C)C)cc1 (stereo not drawn) [Bisoprolol fumarate] | 124 | 89 | 104 |  |
| Oc1c(Cl)cc(Cl)cc1Sc1cc(Cl)cc(Cl)c1O [Bithionol, reference compound] | 80 | 6 | 52 | IC50 (recombinant PRL-2; 2.5 µM protein, DiFMUP at KM, read-out: Calculated IC50, PRL-2 phosphatase activity): 115 ± 34 µM; IC50 (recombinant PRL-3; 2.5 µM protein, DiFMUP at KM, read-out: Calculated IC50, PRL-3 phosphatase activity): 33 ± 2 µM; IC50 (recombinant PRL-1; 2.5 µM protein, DiFMUP at KM, read-out: Calculated IC50, PRL-1 phosphatase activity): 79 ± 25 µM |
| C[C@H](Oc1ccc(S(C)(=O)=O)cc1C(=O)N1CCN(c2ncc(C(F)(F)F)cc2F)CC1)C(F)(F)F [Bitopertin] | 73 | 82 | 93 |  |
| CC(C)C[C@H](NC(=O)[C@H](Cc1ccccc1)NC(=O)c1cnccn1)B(O)O [Bortezomib (PS-341)] | 121 | 93 | 104 |  |
| COc1ccccc1Oc1c(NS(=O)(=O)c2ccc(C(C)(C)C)cc2)nc(-c2ncccn2)nc1OCCO [Bosentan Hydrate] | 96 | 93 | 87 |  |
